Results: patent US20250296959A1, “B7-H3 TARGETING PEPTIDES AND CONSTRUCTS THEREOF” (Mariana Oncology Inc., priority 2024, published 2025)
Starred links: 1 amine or outer side, 2 acyl side, 3 side chain; linkers in the order of their positions; H or OH if unused. Positions of bridges follow the written chain, without caps; N, C: chain ends. Non-standard residues stand in square brackets, D forms with d. Residues, ends and D or L forms follow the SMILES beside them. Groups on a side chain read outwards from the residue. *: point of attachment. X2 = O=C(O)CN1CCN(CC(=O)O)CCN(CC(=O)NCCOCCOCCOCCOCC(=O)*)CCN(CC(=O)O)CC1; Ala(piperidin-4-yl) = O=C([C@H](CC1CCN([*:3])CC1)N[*:1])[*:2]; Phe(3-CH2NH2) = O=C([C@H](Cc1cccc(CN[*:3])c1)N[*:1])[*:2]; DOTA = O=C(O)CN1CCN(CC(=O)O)CCN(CC(=O)*)CCN(CC(=O)O)CC1; Phe(4-COOH) = N[C@@H](Cc1ccc(C(=O)O)cc1)C(=O)O; Trp(5-F) = N[C@@H](Cc1c[nH]c2ccc(F)cc12)C(=O)O; 1Nal = N[C@@H](Cc1cccc2ccccc12)C(=O)O; Ala(4-THP) = N[C@@H](CC1CCOCC1)C(=O)O; Val(3-OH) = CC(C)(O)[C@H](N)C(=O)O; 4Pal = N[C@@H](Cc1ccncc1)C(=O)O; aThr = C[C@H](O)[C@H](N)C(=O)O; PEG4 = NCCOCCOCCOCCOCCC(=O)O; Tle = CC(C)(C)[C@H](N)C(=O)O; hLeu = CC(C)CC[C@H](N)C(=O)O; NMeC = CN[C@@H](CS)C(=O)O; NMeS = CN[C@@H](CO)C(=O)O; Nle = CCCC[C@H](N)C(=O)O

Biological target: T1, human 4lg B7-H3 (Homo sapiens, UniProt Q5ZPR3)
T1 sequence (Q5ZPR3 29-534): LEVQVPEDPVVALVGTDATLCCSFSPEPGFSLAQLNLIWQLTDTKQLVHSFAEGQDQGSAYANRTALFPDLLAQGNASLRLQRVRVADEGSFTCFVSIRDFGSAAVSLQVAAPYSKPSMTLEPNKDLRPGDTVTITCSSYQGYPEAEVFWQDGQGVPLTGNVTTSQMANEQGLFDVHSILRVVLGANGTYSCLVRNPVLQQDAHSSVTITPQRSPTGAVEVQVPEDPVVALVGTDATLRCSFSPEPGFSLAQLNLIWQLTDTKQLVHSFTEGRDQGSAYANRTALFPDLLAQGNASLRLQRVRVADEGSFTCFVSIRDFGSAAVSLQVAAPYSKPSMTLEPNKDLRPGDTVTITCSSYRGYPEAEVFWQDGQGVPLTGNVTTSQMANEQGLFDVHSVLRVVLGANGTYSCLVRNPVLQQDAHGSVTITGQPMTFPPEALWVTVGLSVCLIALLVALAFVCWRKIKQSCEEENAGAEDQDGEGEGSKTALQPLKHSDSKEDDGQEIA
Experiment: Affinity determination by surface plasmon resonance (SPR) to 4Ig B7-H3
Details: 4Ig B7-H3

[1] = SPR KD—25° C., 25° C. flow cell temperature
[2] = SPR KD—37° C., 37° C. flow cell temperature

| SMILES | Kd [1] [nM] | Kd [2] [nM] |
| --- | --- | --- |
| CC[C@H](C)[C@@H]1NC(=O)[C@@H](NC(=O)[C@H](Cc2ccc(O)cc2)NC(=O)[C@H](CCC(C)C)NC(C)=O)CSSC[C@@H](C(=O)N[C@@H](Cc2c[nH]c3ccc(F)cc23)C(=O)N[C@@H](Cc2ccccc2)C(=O)N[C@H](C(=O)O)C(C)(C)O)NC(=O)[C@H](Cc2ccc(O)cc2)NC(=O)[C@H](C(C)C)NC(=O)[C@H](CC(=O)O)NC(=O)[C@H](CC2CCNCC2)NC(=O)[C@H](CCCCNC(=O)CN2CCN(CC(=O)O)CCN(CC(=O)O)CCN(CC(=O)O)CC2)NC(=O)CNC1=O [compound 323, Ac-hLeu-Y-C-Ile-G-Lys(DOTA)-PipAla-D-V-Y-C-5FW-F-hydroxyVal-COOH] (Ac-[hLeu]YCIGK(DOTA)[Ala(piperidin-4-yl)]DVYC[Trp(5-F)]F[Val(3-OH)]-OH; disulfide 3-11) | – | 1 to 10 |
| CC(=O)N[C@@H](CCC(C)C)C(=O)N[C@@H](Cc1ccc(O)cc1)C(=O)N[C@H]1CSSC[C@@H](C(=O)N[C@@H](Cc2c[nH]c3ccc(F)cc23)C(=O)N[C@@H](Cc2ccccc2)C(=O)N[C@H](C(=O)N[C@H](CCC(=O)O)C(N)=O)C(C)(C)O)NC(=O)[C@H](Cc2ccc(O)cc2)NC(=O)[C@H](C(C)C)NC(=O)[C@H](CC(=O)O)NC(=O)[C@H](CC2CCOCC2)NC(=O)[C@H](CC2CCN(C(=O)CCOCCOCCOCCOCCNC(=O)CN3CCN(CC(=O)O)CCN(CC(=O)O)CCN(CC(=O)O)CC3)CC2)NC(=O)CNC(=O)[C@H](C(C)(C)C)NC1=O [compound 409, Ac-hLeu-Y-C-Tbg-G-Pip(PEG4-DOTA)Ala-ThpA-D-V-Y-C-5FW-F-hydroxyVal-dGlu-CONH2] (Ac-[hLeu]YC[Tle]G[Ala(piperidin-4-yl)]([PEG4-DOTA])[Ala(4-THP)]DVYC[Trp(5-F)]F[Val(3-OH)][dE]-NH2; disulfide 3-11) | – | 1 to 10 |
| CC(=O)N[C@@H](CCC(C)C)C(=O)N[C@@H](Cc1ccc(O)cc1)C(=O)N[C@H]1CSSC[C@@H](C(=O)N[C@@H](Cc2c[nH]c3ccccc23)C(=O)N[C@@H](Cc2ccccc2)C(=O)N[C@H](C(=O)N[C@H](CCCCNC(=O)CN2CCN(CC(=O)O)CCN(CC(=O)O)CCN(CC(=O)O)CC2)C(N)=O)[C@@H](C)O)NC(=O)[C@H](Cc2ccc(O)cc2)NC(=O)[C@H]([C@H](C)O)NC(=O)[C@H](CC(=O)O)NC(=O)[C@H](Cc2ccc(O)cc2)NC(=O)[C@H](CCCCN)NC(=O)CNC(=O)[C@H](C(C)C)NC1=O [compound 125, Ac-hLeu-Y-C-V-G-K-Y-D-alloThr-Y-C-W-F-Thr-dLys(DOTA)-CONH2] (Ac-[hLeu]YCVGKYD[aThr]YCWFT[dK](DOTA)-NH2; disulfide 3-11) | 100 to 300 | – |
| CC(=O)N[C@@H](CCC(C)C)C(=O)N[C@@H](Cc1ccc(O)cc1)C(=O)N[C@H]1CSSC[C@@H](C(=O)N[C@@H](Cc2c[nH]c3ccc(F)cc23)C(=O)N[C@@H](Cc2ccccc2)C(=O)N2CCC[C@H]2C(=O)O)NC(=O)[C@H](Cc2ccc(O)cc2)NC(=O)[C@H](C(C)C)NC(=O)[C@H](CC(=O)O)NC(=O)[C@H](Cc2ccc(C(=O)O)cc2)NC(=O)[C@H](CCCCNC(=O)CN2CCN(CC(=O)O)CCN(CC(=O)O)CCN(CC(=O)O)CC2)NC(=O)CNC(=O)[C@H](C(C)C)NC1=O [compound 290, Ac-hLeu-Y-C-V-G-Lys(DOTA)-4COOHPhe-D-V-Y-C-5FW-F-Pro-COOH] (Ac-[hLeu]YCVGK(DOTA)[Phe(4-COOH)]DVYC[Trp(5-F)]FP-OH; disulfide 3-11) | 100 to 300 | – |
| CC(=O)N[C@@H](CCC(C)C)C(=O)N[C@@H](Cc1ccc(O)cc1)C(=O)N[C@H]1CSSC[C@@H](C(=O)N[C@@H](Cc2c[nH]c3ccc(F)cc23)C(=O)N[C@@H](CC(C)C)C(=O)N[C@H](C(=O)N[C@H](CCCCNC(=O)CN2CCN(CC(=O)O)CCN(CC(=O)O)CCN(CC(=O)O)CC2)C(=O)O)[C@@H](C)O)NC(=O)[C@H](Cc2ccc(O)cc2)NC(=O)[C@H](C(C)C)NC(=O)[C@H](CC(=O)O)NC(=O)[C@H](CC2CCOCC2)NC(=O)[C@H](CCCCN)NC(=O)CNC(=O)[C@H](C(C)(C)C)NC1=O [compound 334, Ac-hLeu-Y-C-Tbg-G-K-ThpA-D-V-Y-C-5FW-Leu-Thr-dLys(DOTA)-COOH] (Ac-[hLeu]YC[Tle]GK[Ala(4-THP)]DVYC[Trp(5-F)]LT[dK](DOTA)-OH; disulfide 3-11) | 10 to 100 | – |
| CCCC[C@@H]1NC(=O)[C@H](C(C)C)NC(=O)[C@H](CC(=O)O)NC(=O)[C@H](Cc2ccncc2)NC(=O)[C@H](CCCCN)NC(=O)CNC(=O)[C@H](C(C)(C)C)NC(=O)[C@@H](NC(=O)[C@H](Cc2ccc(O)cc2)NC(=O)[C@H](CCC(C)C)NC(C)=O)CSSC[C@@H](C(=O)N[C@@H](Cc2cccc3ccccc23)C(=O)N[C@@H](Cc2ccccc2)C(=O)N(C)[C@@H](CO)C(=O)N[C@H](CCCCNC(=O)CN2CCN(CC(=O)O)CCN(CC(=O)O)CCN(CC(=O)O)CC2)C(N)=O)NC1=O [compound 225, Ac-hLeu-Y-C-Tbg-G-K-4PyA-D-V-Nle-C-1Nal-F-NMeSer-dLys(DOTA)-CONH2] (Ac-[hLeu]YC[Tle]GK[4Pal]DV[Nle]C[1Nal]F[NMeS][dK](DOTA)-NH2; disulfide 3-11) | 10 to 100 | – |

Results, then the molecule that gave them:

| Kd [1] [nM] | Kd [2] [nM] | SMILES |
| --- | --- | --- |
| 1 to 10 | – | CC(=O)N[C@@H](CCC(C)C)C(=O)N[C@@H](Cc1ccc(O)cc1)C(=O)N(C)[C@H]1CSSC[C@@H](C(=O)N[C@@H](Cc2c[nH]c3ccc(F)cc23)C(=O)N[C@@H](Cc2ccccc2)C(=O)N[C@H](C(=O)N[C@H](CCCCNC(=O)CN2CCN(CC(=O)O)CCN(CC(=O)O)CCN(CC(=O)O)CC2)C(=O)O)[C@@H](C)O)NC(=O)[C@H](Cc2ccc(O)cc2)NC(=O)[C@H](C(C)C)NC(=O)[C@H](CC(=O)O)NC(=O)[C@H](CC2CCOCC2)NC(=O)[C@H](CCCCN)NC(=O)CNC(=O)[C@H](C(C)C)NC1=O [compound 361, Ac-hLeu-Y-NMeCys-V-G-K-ThpA-D-V-Y-C-5FW-F-Thr-dLys(DOTA)-COOH] (Ac-[hLeu]Y[NMeC]VGK[Ala(4-THP)]DVYC[Trp(5-F)]FT[dK](DOTA)-OH; disulfide 3-11) |
| < 1 | – | CC(=O)N[C@@H](CCC(C)C)C(=O)N[C@@H](Cc1ccc(O)cc1)C(=O)N[C@H]1CSSC[C@@H](C(=O)N[C@@H](Cc2c[nH]c3ccccc23)C(=O)N[C@@H](Cc2ccccc2)C(=O)N[C@H](C(=O)N[C@H](CCCCNC(=O)CN2CCN(CC(=O)O)CCN(CC(=O)O)CCN(CC(=O)O)CC2)C(N)=O)[C@@H](C)O)NC(=O)[C@H](Cc2ccc(O)cc2)NC(=O)[C@H](C(C)C)NC(=O)[C@H](CC(=O)O)NC(=O)[C@H](Cc2ccncc2)NC(=O)[C@H](CCCCN)NC(=O)CNC(=O)[C@H](C(C)C)NC1=O [compound 155, Ac-hLeu-Y-C-V-G-K-4PyA-D-V-Y-C-W-F-Thr-dLys(DOTA)-CONH2] (Ac-[hLeu]YCVGK[4Pal]DVYCWFT[dK](DOTA)-NH2; disulfide 3-11) |
| 1 to 10 | 10 to 100 | CCCC[C@H](NC(C)=O)C(=O)N[C@@H](Cc1ccc(O)cc1)C(=O)N[C@H]1CSSC[C@@H](C(=O)N[C@@H](Cc2c[nH]c3ccccc23)C(=O)N[C@@H](Cc2ccccc2)C(=O)N[C@H](C(N)=O)[C@@H](C)O)NC(=O)[C@H](Cc2ccc(O)cc2)NC(=O)[C@H](C(C)C)NC(=O)[C@H](CC(=O)O)NC(=O)[C@H](Cc2ccc(O)cc2)NC(=O)[C@H](CCCCN)NC(=O)CNC(=O)[C@H](C(C)C)NC1=O [compound 32, Ac-Nle-Y-C-V-G-K-Y-D-V-Y-C-W-F-Thr-CONH2] (Ac-[Nle]YCVGKYDVYCWFT-NH2; disulfide 3-11) |
| 1 to 10 | – | CC(=O)N[C@@H](CCC(C)C)C(=O)N[C@@H](Cc1ccc(O)cc1)C(=O)N[C@H]1CSSC[C@@H](C(=O)N[C@@H](Cc2c[nH]c3ccc(F)cc23)C(=O)N[C@@H](Cc2ccccc2)C(=O)N[C@H](C(N)=O)[C@@H](C)O)NC(=O)[C@H](Cc2cccc(CNC(=O)CN3CCN(CC(=O)O)CCN(CC(=O)O)CCN(CC(=O)O)CC3)c2)NC(=O)[C@H](C(C)C)NC(=O)[C@H](CC(=O)O)NC(=O)[C@H](Cc2ccc(O)cc2)NC(=O)[C@H](CCCCN)NC(=O)CNC(=O)[C@H](C(C)C)NC1=O [compound 183, Ac-hLeu-Y-C-V-G-K-Y-D-V-MAF(DOTA)-C-5FW-F-Thr-CONH2] (Ac-[hLeu]YCVGKYDV[Phe(3-CH2NH2)](DOTA)C[Trp(5-F)]FT-NH2; disulfide 3-11) |
| 1 to 10 | – | CC(=O)N[C@@H](CCC(C)C)C(=O)N[C@@H](Cc1ccc(O)cc1)C(=O)N[C@H]1CSSC[C@@H](C(=O)N[C@@H](Cc2cccc3ccccc23)C(=O)N[C@@H](Cc2ccccc2)C(=O)N2CCC[C@H]2C(N)=O)NC(=O)[C@H](Cc2ccc(O)cc2)NC(=O)[C@H](C(C)C)NC(=O)[C@H](CC(=O)O)NC(=O)[C@H](Cc2cccc(CNC(=O)COCCOCCOCCOCCNC(=O)CN3CCN(CC(=O)O)CCN(CC(=O)O)CCN(CC(=O)O)CC3)c2)NC(=O)[C@H](CCCCN)NC(=O)CNC(=O)[C@H](C(C)(C)C)NC1=O [compound 257, Ac-hLeu-Y-C-Tbg-G-K-MAF(PEG4-DOTA)-D-V-Y-C-1Nal-F-Pro-CONH2] (Ac-[hLeu]YC[Tle]GK[Phe(3-CH2NH2)](X2)DVYC[1Nal]FP-NH2; disulfide 3-11) |
| 1 to 10 | – | CCCC[C@H](NC(C)=O)C(=O)N[C@@H](Cc1ccc(O)cc1)C(=O)N[C@H]1CSSC[C@@H](C(=O)N[C@@H](Cc2c[nH]c3ccc(F)cc23)C(=O)N[C@@H](Cc2ccccc2)C(=O)N[C@H](C(N)=O)[C@@H](C)O)NC(=O)[C@H](Cc2ccc(O)cc2)NC(=O)[C@H](C(C)C)NC(=O)[C@H](CC(=O)O)NC(=O)[C@H](Cc2ccc(O)cc2)NC(=O)[C@H](CCCCN)NC(=O)CNC(=O)[C@H](C(C)C)NC1=O [compound 59, Ac-Nle-Y-C-V-G-K-Y-D-V-Y-C-5FW-F-Thr-CONH2] (Ac-[Nle]YCVGKYDVYC[Trp(5-F)]FT-NH2; disulfide 3-11) |
